# Source: ChEMBL document CHEMBL5724796, “Tm Shift (DSF) assay results for EUbOPEN Chemogenomics Library” (2024)
# Residues, ends and D or L forms follow the SMILES beside them.
# Legend:
# Peregrin (Homo sapiens) = target: T1, Peregrin (Homo sapiens) (UniProt P55201); settings: Compound concentration 20.0 uM
# T1 sequence (whole entry): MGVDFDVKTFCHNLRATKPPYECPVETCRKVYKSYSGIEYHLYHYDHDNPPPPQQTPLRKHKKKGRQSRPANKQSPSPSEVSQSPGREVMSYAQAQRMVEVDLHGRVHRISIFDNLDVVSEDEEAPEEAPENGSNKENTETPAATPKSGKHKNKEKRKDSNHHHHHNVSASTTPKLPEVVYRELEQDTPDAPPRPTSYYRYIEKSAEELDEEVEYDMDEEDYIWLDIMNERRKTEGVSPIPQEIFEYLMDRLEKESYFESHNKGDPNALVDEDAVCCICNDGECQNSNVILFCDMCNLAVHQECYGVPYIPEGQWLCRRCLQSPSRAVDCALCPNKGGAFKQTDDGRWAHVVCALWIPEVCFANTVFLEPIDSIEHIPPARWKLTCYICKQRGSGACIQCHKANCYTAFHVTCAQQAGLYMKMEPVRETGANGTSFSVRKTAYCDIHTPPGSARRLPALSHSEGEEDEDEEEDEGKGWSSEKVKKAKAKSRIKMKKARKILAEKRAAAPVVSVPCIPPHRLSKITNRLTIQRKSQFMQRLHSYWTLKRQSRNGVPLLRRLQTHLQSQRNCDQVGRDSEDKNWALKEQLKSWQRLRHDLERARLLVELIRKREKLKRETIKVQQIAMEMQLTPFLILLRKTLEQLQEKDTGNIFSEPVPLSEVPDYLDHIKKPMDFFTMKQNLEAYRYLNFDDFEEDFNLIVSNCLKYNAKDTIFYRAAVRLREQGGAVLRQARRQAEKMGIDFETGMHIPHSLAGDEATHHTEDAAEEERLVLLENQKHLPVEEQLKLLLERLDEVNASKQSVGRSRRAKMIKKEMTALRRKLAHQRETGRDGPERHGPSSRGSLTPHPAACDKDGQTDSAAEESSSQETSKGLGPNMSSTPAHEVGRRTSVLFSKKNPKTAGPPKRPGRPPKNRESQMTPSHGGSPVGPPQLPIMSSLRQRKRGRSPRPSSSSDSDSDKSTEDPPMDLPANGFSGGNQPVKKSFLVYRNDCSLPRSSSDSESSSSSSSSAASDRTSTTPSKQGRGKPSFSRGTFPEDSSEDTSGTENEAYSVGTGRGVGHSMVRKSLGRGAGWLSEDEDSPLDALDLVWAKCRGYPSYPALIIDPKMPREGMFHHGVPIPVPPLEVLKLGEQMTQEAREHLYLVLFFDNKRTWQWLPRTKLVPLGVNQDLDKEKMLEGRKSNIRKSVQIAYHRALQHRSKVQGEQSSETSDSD
# [1] = target: Fibroblast growth factor receptor 2 (Homo sapiens) (UniProt P21802); settings: Compound concentration 20.0 uM
# Chain of Fibroblast growth factor receptor 2 (Homo sapiens) (P21802 22-821 limits assumed): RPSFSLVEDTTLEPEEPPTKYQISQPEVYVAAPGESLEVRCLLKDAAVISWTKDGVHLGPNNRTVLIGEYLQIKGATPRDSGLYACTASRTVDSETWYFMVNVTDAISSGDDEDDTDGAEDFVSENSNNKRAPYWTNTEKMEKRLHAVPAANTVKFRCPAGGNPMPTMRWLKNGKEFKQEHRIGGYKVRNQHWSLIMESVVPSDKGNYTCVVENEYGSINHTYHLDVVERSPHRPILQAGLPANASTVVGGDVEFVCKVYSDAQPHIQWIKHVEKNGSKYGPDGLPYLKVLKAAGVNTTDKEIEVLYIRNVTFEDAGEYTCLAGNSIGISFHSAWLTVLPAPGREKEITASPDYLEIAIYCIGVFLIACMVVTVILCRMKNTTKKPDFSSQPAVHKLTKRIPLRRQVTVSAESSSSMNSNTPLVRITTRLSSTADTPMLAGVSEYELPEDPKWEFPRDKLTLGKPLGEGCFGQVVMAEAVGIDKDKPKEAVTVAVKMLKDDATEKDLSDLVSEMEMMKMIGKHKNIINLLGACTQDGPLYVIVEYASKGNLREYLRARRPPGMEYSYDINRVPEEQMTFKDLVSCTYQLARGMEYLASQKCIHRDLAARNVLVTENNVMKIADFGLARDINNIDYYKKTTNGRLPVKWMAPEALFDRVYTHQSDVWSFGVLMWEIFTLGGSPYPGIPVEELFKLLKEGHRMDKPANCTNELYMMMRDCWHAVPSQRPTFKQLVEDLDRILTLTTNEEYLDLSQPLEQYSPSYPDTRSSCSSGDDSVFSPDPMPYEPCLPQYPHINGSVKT
# Description: Thermal Shift Assay. Domain: start/stop: T457-E768
SMILES,ΔTm (Peregrin (Homo sapiens)),ΔTm [1]
Cc1ccc(N2C(=O)/C(=C/C=C/c3ccco3)C(=O)NC2=S)cc1Cl,-2.31 °C,-1.72 °C
COc1cc(O)c2c(c1)/C=C\C[C@H](O)[C@H](O)C(=O)/C=C\C[C@H](C)OC2=O,-1.29 °C,2.24 °C
CCCCCCNC(=O)n1cc(F)c(=O)[nH]c1=O,0.95 °C,0.03 °C
CC(C)(O)c1ccc(-c2nc3c(F)cc(F)cc3c(=O)[nH]2)cc1,-0.9 °C,-3.32 °C
COC(=O)[C@@H]1CC2=CC(=O)CC[C@]2(C)[C@@]23O[C@@H]2C[C@@]2(C)[C@@H](CC[C@@]24CCC(=O)O4)[C@H]13,-1.07 °C,1.06 °C
Nc1ccc(-c2cccs2)cc1NC(=O)c1ccc2nc(N3CCNCC3)ccc2c1,0.96 °C,0.98 °C
CC(C)NCC(O)COC(Cn1c2ccccc2c2ccccc21)Cn1c2ccccc2c2ccccc21 (stereo not drawn),-1.15 °C,0.48 °C
N#C[C@@H]1CCCN1C(=O)CNC(=O)c1ccnc2ccc(OCCCN3CCN(C(=O)CN4CCN(CC(=O)O)CCN(CC(=O)O)CCN(CC(=O)O)CC4)CC3)cc12,1.8 °C,0.18 °C
CC(=O)N[C@@H](CCCCNC(=O)CSCCNC(=O)CCNC(=O)[C@H](O)C(C)(C)COP(=O)(O)OP(=O)(O)OC[C@H]1O[C@@H](n2cnc3c(N)ncnc32)[C@H](O)[C@@H]1OP(=O)(O)O)C(N)=O,1.95 °C,0.51 °C
CN(CCCN1c2ccccc2CCc2ccccc21)CC(=O)c1ccc(Cl)cc1,-0.12 °C,0.53 °C
CNCC[C@@H](Oc1ccccc1C)c1ccccc1,-1.53 °C,0.34 °C
N#Cc1cccnc1N1CCN(C(=O)c2cccc(Cc3n[nH]c(=O)c4ccccc34)c2)CC1,1.88 °C,-0.1 °C
O=[N+]([O-])c1c(Nc2cc(F)cc(Cl)c2)ccc2nonc12,0.04 °C,-0.15 °C
O=C1CCc2cc(OCCCCc3nnnn3C3CCCCC3)ccc2N1,-1.16 °C,-0.38 °C
Cc1cc(OCc2nnc(SC3CCCC3)n2-c2cccnc2)ccc1-c1ccc(S(C)(=O)=O)cc1,-5.44 °C,-3.4 °C
CS(=O)(=O)N1CCN(C(=O)c2cnc3ccc(Cl)cc3c2-c2ccc(C3(C#N)CC3)cc2)CC1,1.84 °C,0.34 °C
C[C@@H](Nc1nc2c(cnn2C2CCCC2)c(=O)[nH]1)C(=O)N1CC[C@H](F)C1,-0.37 °C,-0.04 °C
CC(=O)N1CCc2c(c(N3CCCc4cc(-c5cnn(C)c5)c(C(F)F)cc43)nn2C2CCOCC2)C1,-1.44 °C,0.45 °C
CCOc1ccc(Cc2cc([C@@H]3O[C@H](CO)[C@@H](O)[C@H](O)[C@H]3O)ccc2Cl)cc1,-0.19 °C,0.15 °C
NC(=O)C1CN(CCCCC(c2ccc(F)cc2)c2ccc(F)cc2)CCN1CC(=O)Nc1c(Cl)cc(N)cc1Cl (stereo not drawn),-3.73 °C,-9.38 °C

SMILES,ΔTm (Peregrin (Homo sapiens)),ΔTm [1]
CS(=O)(=O)c1ncn2c(NCc3c(F)ccc4c3CCO4)ncc(-c3ccc(C4CC4)nc3)c12,-0.81 °C,-0.76 °C
Cc1nc(-c2cnc(NC(C)C)n(C)c2=O)ccc1Oc1ccnc(-c2cnn(C)c2)c1,-1.33 °C,0.6 °C
Cc1ncsc1-c1ccc(CNC(=O)[C@@H]2C[C@@H](O)CN2C(=O)[C@@H](NC(=O)COCC(C)(COCCOCCOCCNC(=O)C[C@@H]2N=C(c3ccc(Cl)cc3)c3c(sc(C)c3C)-n3c(C)nnc32)COCCOCCOCCNC(=O)C[C@@H]2N=C(c3ccc(Cl)cc3)c3c(sc(C)c3C)-n3c(C)nnc32)C(C)(C)C)cc1,-5.29 °C,-1.18 °C
O=C(NO)c1ccc(CN2CCCc3cc(Cl)ccc32)cc1,-1.37 °C,0.45 °C
Nc1ncnc2c1nc(NCc1ccc(-c3ccccc3)cc1)n2[C@@H]1O[C@H](CO)[C@@H](O)[C@H]1O,0.29 °C,0.12 °C
N#Cc1nc2c(nc1C#N)-c1ccccc1C2=NOCc1ccccc1,5.25 °C,0.78 °C
CC(=O)N[C@@H](CC(C)C)C(=O)N[C@@H](CCC(=O)O)C(=O)N[C@@H](Cc1cnc[nH]1)C(=O)N[C@H](C=O)CC(=O)O (Ac-LEHD-aldehyde),-1.22 °C,0.53 °C
CN(C)Cc1ccc(S(=O)(=O)n2ccc(/C=C/C(=O)NO)c2)cc1,-0.83 °C,0.36 °C
C=C(C)[C@@H](CC=C(C)C)C[C@@]12C[C@@H](CC=C(C)C)C(C)(C)[C@@](CC=C(C)C)(C(=O)C(C(=O)c3ccc(O)c(O)c3)=C1O)C2=O,-4.72 °C,-5.95 °C
CC(C)n1nc(-c2cc3cc(O)ccc3[nH]2)c2c(N)ncnc21,1.52 °C,4.67 °C
CC/C(=C(/CC)c1ccc(O)cc1)c1ccc(O)cc1,-8.49 °C,-8.29 °C
NC(=O)[C@H]1CCCCc2c1[nH]c1ccc(Cl)cc21,0.13 °C,1.09 °C
O=C(CCl)Nc1ccc(S(=O)(=O)c2ccc(NC(=O)CCl)cc2)cc1,0.78 °C,0.88 °C
O=c1cc(-c2ccc(O)cc2)oc2c(CN3CCN(Cc4cccs4)CC3)c(O)cc(O)c12,3.1 °C,1.05 °C
CC(C)N(C[C@H]1O[C@@H](n2cnc3c(N)ncnc32)[C@H](O)[C@@H]1O)[C@H]1C[C@@H](CCc2nc3cc(C(C)(C)C)ccc3[nH]2)C1,-1.35 °C,0.82 °C
C[C@@H]1O[C@@H](CC(=O)O)CC2=C1C(=O)c1c(O)cccc1C2=O,0.11 °C,-0.89 °C
N[C@H]1CC[C@H](N[C@@H]2C[C@H]2c2ccccc2)CC1,1.23 °C,0.55 °C
CC(=O)OCCN1C(=O)c2c(C)nc3ccc(S(=O)(=O)N4CCOCC4)cc3c2C1=O,-0.89 °C,0.68 °C
COc1cc(Cl)ccc1C1=CN(c2ccc(-c3ccccc3OC)cc2)C2=NCCCN12,-0.95 °C,-1.01 °C
Cc1sc2c(c1C)C(c1ccc(Cl)cc1)=N[C@@H](CC(=O)OC(C)(C)C)c1nnc(C)n1-2,-1.61 °C,0.6 °C

SMILES,ΔTm (Peregrin (Homo sapiens)),ΔTm [1]
Cn1nc(C(C)(C)C)cc1C(=O)NC(Cc1cccc(Cl)c1)C(=O)NCC#N (stereo not drawn),2.3 °C,0.05 °C
Cc1cc(C)c(CNC(=O)c2cc(Cl)c3c(c2C)O[C@@](C)([C@H]2CC[C@H](N(C)C)CC2)O3)c(=O)[nH]1,-0.71 °C,-1.83 °C
CC(=O)N[C@@H](Cc1ccc(O)cc1)C(=O)N[C@H](C(=O)N[C@@H](C)C(=O)N[C@@H](CC(=O)O)C(=O)COC(=O)c1c(C)cccc1C)C(C)C,-1.58 °C,0.82 °C
O=C1c2ccccc2C(=O)c2oc(-c3ccccc3)nc21,1.63 °C,-1.3 °C
CCOc1ccc2nc(-c3cccc(OCC(=O)NC(C)C)c3)nc(Nc3ccc(-c4cn[nH]c4)cc3)c2c1,2.82 °C,-0.59 °C
Cc1ccsc1C(=CCCN1CCC[C@@H](C(=O)O)C1)c1sccc1C,0.44 °C,0.37 °C
Nc1nc(NC2CC2)cc(-c2cccc(Cl)c2Cl)n1,0.95 °C,0.04 °C
Cn1ncc(-c2nn(C)c3ncnc(N4CCC4)c23)c1-c1ccc(C(F)(F)F)cc1,3.7 °C,0.04 °C
COc1ccc(-c2c(-c3ccc(C#N)c(F)c3)nc(N3CCC(N)CC3)n(C)c2=O)cc1F,1.09 °C,0.16 °C
COc1cc(C)[nH]c(=O)c1CNC(=O)c1c(C)n([C@H](C)C2CCOCC2)c2ccccc12,-1.84 °C,0.42 °C
CC(C)c1cc(C(=O)N2Cc3ccc(CN4CCN(C)CC4)cc3C2)c(O)cc1O,-1.35 °C,0.44 °C
N[C@@H](CC(=O)N1CCN(C(c2ccc(F)cc2)c2ccc(F)cc2)CC1)C(=O)N1Cc2ccccc2C1,-1.34 °C,0 °C
Cc1cc(C(=O)CN2CCC(O)CC2)c(C)n1-c1ccc(C#N)cc1,1.04 °C,-0.17 °C
CS(=O)(=O)c1ccc(-c2cnc(NCc3ccco3)n3cnnc23)cc1,-1.15 °C,0.54 °C
CN1CCN(c2cc(C(=O)Nc3ncc(SCc4cccc(C(F)(F)F)c4)s3)ccn2)CC1,-1.6 °C,0.89 °C
Nc1ncnc2c1ncn2[C@@H]1O[C@H](C(=O)N2CCN(CC(=O)Nc3cccc4c3CNC4=O)CC2)[C@@H](O)[C@H]1O,-1.21 °C,0.74 °C
Cc1c(CN2CCC(Nc3ncnc4sc(CC(F)(F)F)cc34)CC2)ccc2[nH]c(C#N)cc12,-2.53 °C,0.11 °C
COC1CCN(C(=O)c2cc(Cc3n[nH]c(=O)c4ccccc34)ccc2F)CC1,1.51 °C,-0.21 °C
C[C@H](NC(=O)[C@H](Cc1ccccc1)NC(=O)OCc1ccccc1)C(=O)CF,-1.31 °C,0.14 °C
